Test results taken from US7407667B2, “Pesticidal preparations comprising copolymers” (Clariant Produkte (Deutschland) GmbH, priority 2001, dated 2008).

How the values were obtained:
Assay type in all cases: in vivo
[1] = tested on: Abutilon theophrasti (ABUTH); assay: Greenhouse herbicidal action of glyphosate test formulations, plant growth assessed on a % scale; details: copolymer 600 g/ha where named, 300 l/ha, after 21 days at 20° C.
Experimental: (§1) Test formulations were prepared with in each case 200 g, 300 g and 500 g of glyphosate and in each case 600 g of the copolymers I to V in 300 l of water. The data by weight refer to 100% active ingredient and 100% adjuvant. An amount of the formulation corresponding to the ratio 300 l/ha was applied in a greenhouse to the plant species Abutilon theophrasti (ABUTH), Sesbania exaltata (SEBEX), Pharbitis purpurea (PHBPU), Galium aparine (GALAP), Amaranthus retroflexus (AMARE) and Echinochloa crus-galli (ECHCG), and, after 21 days at 20° C., the plant growth was assessed according to a % scale.
(§2) 0% means no effect and 100% means complete destruction of the types of plant.

[2] = tested on: Amaranthus retroflexus (AMARE); assay: as above; details: copolymer 600 g/ha where named, 300 l/ha, after 21 days at 20° C.
Experimental: as §1, §2

[3] = tested on: Pharbitis purpurea (PHBPU); assay: as above; details: copolymer 600 g/ha where named, 300 l/ha, after 21 days at 20° C.
Experimental: as §1, §2

[4] = tested on: Echinochloa crus-galli (ECHCG); assay: as above; details: copolymer 600 g/ha where named, 300 l/ha, after 21 days at 20° C.
Experimental: as §1, §2

Galium aparine (GALAP) = assay: as above; details: copolymer 600 g/ha where named, 300 l/ha, after 21 days at 20° C.
Experimental: as §1, §2

[5] = tested on: Sesbania exaltata (SEBEX); assay: as above; details: copolymer 600 g/ha where named, 300 l/ha, after 21 days at 20° C.
Experimental: as §1, §2

[6] = tested on: SEBEX, AMARE, GALAP, ABUTH, ECHCG, PHBPU (Total); assay: Greenhouse herbicidal action of glyphosate test formulations, total over the six plant species; details: copolymer 600 g/ha where named
Experimental: as §1, §2

In the case of O=C(O)CNCP(=O)(O)O [Glyphosate, N-phosphonomethylglycine], the “herbicidal action ABUTH” value ([1]; glyphosate 200 g/ha) is reported as 0%, the “herbicidal action ABUTH” value ([1]; glyphosate 300 g/ha) is reported as 10% and the “herbicidal action ABUTH” value ([1]; glyphosate 500 g/ha) is reported as 15%. For the same compound, the “herbicidal action AMARE” value ([2]; glyphosate 200 g/ha) was 20%, the “herbicidal action AMARE” value ([2]; glyphosate 300 g/ha) was 45% and the “herbicidal action AMARE” value ([2]; glyphosate 500 g/ha) was 65%. The “herbicidal action PHBPU” value ([3]; glyphosate 200 g/ha) was 10%, the “herbicidal action PHBPU” value ([3]; glyphosate 300 g/ha) was 20% and the “herbicidal action PHBPU” value ([3]; glyphosate 500 g/ha) was 40%. For the same compound, the “herbicidal action ECHCG” value ([4]; glyphosate 200 g/ha) was 15%, the “herbicidal action ECHCG” value ([4]; glyphosate 300 g/ha) was 20% and the “herbicidal action ECHCG” value ([4]; glyphosate 500 g/ha) was 40%. The “herbicidal action GALAP” value (Galium aparine (GALAP); glyphosate 200 g/ha) was 5%, the “herbicidal action GALAP” value (Galium aparine (GALAP); glyphosate 300 g/ha) was 20% and the “herbicidal action GALAP” value (Galium aparine (GALAP); glyphosate 500 g/ha) was 40%. For the same compound, the “herbicidal action SEBEX” value ([5]; glyphosate 200 g/ha, 0% no effect, 100% complete destruction) was 10%, the “herbicidal action SEBEX” value ([5]; glyphosate 300 g/ha) was 15% and the “herbicidal action SEBEX” value ([5]; glyphosate 500 g/ha) was 30%. The “herbicidal action Total” value ([6]; glyphosate 200 g/ha) was 10%, the “herbicidal action Total” value ([6]; glyphosate 300 g/ha) was 22% and the “herbicidal action Total” value ([6]; glyphosate 500 g/ha) was 38%.
